Patent US10934355B2, “Methods and compositions for the prevention and treatment of surgical adhesions” (The Board of Trustees of the Leland Stanford Junior …, priority 2016, dated 2021)
Entries after “also recorded” stand apart in the source; their conditions may differ.

Columns and labels:
Assay type in all cases: in vivo, mouse
[1] = test system: adhesion formation in wild type C57BL/6J mice; assay: Adhesion induction (ischemic button) with HIF1A small molecule inhibitor treatment, adhesion scoring; settings: for adhesion formation: C57BL/6J mice, cryptotanshinone 200 mg/kg, FM19G11 2 mg/kg, echinomycin 10 or 20 ug/kg, PX12 25 mg/kg, immediately after injury, 4 hours after, then every 24 hours for 7 days, scored after 7 days; for adhesion score in a majority of the treated mice: scale 0-5, PX12 n=5, echinomycin n=15, 7 days after induction
Text: (§1) Adhesion induction surgeries were done on wild type B6 (C57BL/6J (The Jackson Laboratory) mice aged 6-10 weeks. Mice were anesthetized by inhaled isoflurane until determined unconscious confirmed by toe-pinch test. The abdomen was disinfected with betadine and phosphate buffered saline (PBS). A left mid-clavicular incision was made in the skin running down the length of the mouse. A similar left-mid clavicular incision was made in the peritoneum running down the length of the peritoneum. The peritoneum was gently folded to the right and held down by a hemostat. A single, ischemic button was placed on the right half of the peritoneal wall by clamping a small (−5 mm diameter) piece of peritoneum and ligating the base with a 4-0 silk suture (Ethicon, 683G). Light abrasion on the button (24 times) and on the adjacent liver, cecum, and small and large bowels (7 times) was optionally performed (depending on the desired adhesion severity) with a surgical brush. Light brushing with fewer repetitions was performed to avoid pinpoint bleeding. The peritoneum was closed using 4-0 silk sutures and the skin was stapled closed (EZ Clips, 9 mm, Braintree Scientific Inc). Mice were allowed to recover on a heating pad and injected with 0.05-0.1 mg/kg of buprenorphine. Mice were followed closely and monitored daily for signs of morbidity for 7 days until euthanasia. Adhesed tissues were dissected, scored, and fixed in 2% paraformaldehyde overnight at 4 degrees.
In functional studies we assign a single score for an adhesion, based on the criteria detailed in the text above, taking into consideration both surface area contact and molecular makeup. […] We have observed adhesion areas with high surface area contact (a score of 3 or 4) with little or no collagen or macrophage involvement (F4/80-). Conversely, we have also observed adhesion areas with low surface area contact (a score of 2) with high collagen and macrophage infiltration. In these cases we will score adhesions based on surface area contact or number of organs involved, as we predict this is a more significant indicator of clinical outcome.
Adhesion induction surgeries were performed on 4-8 week old wild type B6 (C57BL/6J (The Jackson Laboratory) as previously described. 200 mg/kg of cryptotanshinone (Sigma Aldrich), 2 mg/kg of FM19G11 (Sigma Aldrich), 10 ug/kg or 20 ug/kg of echinomycin (Sigma Aldrich), or 25 mg/kg of PX12 (Sigma Aldrich) immediately after injury, 4 hours after injury, and every 24 hours subsequently for 7 days.
Adhesions were induced in wild type C57BL/6J mice using the method described above, with different intensity and scope of abrasions to induce a range of adhesion severity. These mice were allowed to recover for seven days before their adhesions were scored.
In our scheme, an adhesion with a score of 0 has no adhesion between two areas, with limited mesothelial thickening on the button (FIG. 3A). The area stains positive for MSLN and fibronectin (FIG. 3A). Mice with an adhesion score of 0 had no signs of morbidity and survived the 7 day recovery period (n=25). An adhesion score of 1 indicated a “string” adhesion, connecting the two adhesed areas with a light fibrous bridge (FIG. 3B). The string and surrounding areas were immunopositive for MSLN and fibronectin (FIG. 3B). Most mice with an adhesion score of 1 had no signs of morbidity and survived the 7 day recovery period (n=11).
All adhesions with scores of 2 or above involve a single direct contact between two tissues. […]

HIF1A = assay: Immunofluorescence staining of mesothelium surrounding buttons after inhibitor treatment; settings: 7 days after induction and treatment; control adhesions positive for PDPN, MSLN and HIF1A
Description: Immunofluorescence studies were performed on frozen sections. Frozen sections were thawed at room temperature for ten minutes and washed in PBS twice. Slides were blocked in 5% serum for 30 minutes at room temperature. Sections were subsequently stained with primary antibodies against PDPN (1:100, mouse monoclonal, Abcam), MSLN (1:200, rabbit monoclonal, ABBIOTEC), fibronectin (1:100, rabbit monoclonal, Abcam), F4/80 (1:100, rat monoclonal, Abcam), CD31 (1:100, rabbit monoclonal, Abcam), pan-collagen (1:100, rabbit polyclonal, Abcam), WT1 (1:100, rabbit polyclonal, Abcam), CD44 (1:100, rabbit polyclonal, Abcam), HIF1A (1:100, mouse monoclonal), and S100A4 (1:100, rabbit polyclonal, Abcam), overnight at 4 degrees, and washed three times in PBS. Slides were stained were incubated with secondary antibodies conjugated to Alex Fluor 488, 594, or 647 for one to two hours at room temperature. Stains were washed once with PBST and three times with PBS before nuclear staining with Hoechst 33342 (Life Technologies), for two minutes and mounted with Fluoromount G (Southern Biotech).
To explore whether inhibiting the HIF1A pathway in vivo can prevent adhesion formation, we treated mice that had undergone adhesion induction with small molecular inhibitors against HIF1A or its immediate downstream cascade. […] Mice were euthanized after 7 days and their adhesions were imaged and scored.

[2] = test system: HIF1A and mesothelial target genes in injured mesothelial cells; assay: RNA sequencing of sorted injured mesothelium after echinomycin treatment
Description: A modified adhesion induction surgery was done according to previously described procedures on wild type C57BL/6J (The Jackson Laboratory). Two ischemic buttons were placed on each side of the peritoneum and no abrasion of the button or abdominal organs was done. Mice were allowed to recover for 6, 12, or 24 hours and euthanized. Ischemic buttons were dissected by cutting the base and placed in dissociation media (DMEM (Life Technologies, 10565-042), 50 mg/ml collagenase IV (Worthington Biochemical), 20 uM CaCl2). Buttons were homogenized using a single edge blade (Razor Blade Company), and incubated in dissociation media for 30 minutes at 37 C. The subsequent cell suspension was filtered through a 100 um filter and spun and washed with 2% fetal bovine serum (FBS) in PBS. Cells were treated with 1 ml of ACK lysis buffer (Life Technologies) for 5 minutes at 4 C and spun and washed. Cells were blocked with 1% goat serum (Life Technologies) for 10 minutes and stained with anti-PDPN (BioLegend, 8.1.1, 1:100), anti-LYVE-1 (eBioscience, ALY-7, 1:100), anti-CD31 (eBioscience, 390, 1:100), and anti-CD45 (BioLegend, 30-F11, 1:100) for 30 minutes at 4 C. Cells were spun down, filtered, and resuspended in 200 µl of 2% FBS in PBS. Cells were run through a FACSAria (BD Bioscences) and PDPN+LYVE1-CD31-CD45- cells were sorted directly into 750 ul of Trizol LS (Life Technologies).
Total RNA from sorted mesothelial population was isolated using Trizol (ThermoFisher) as per manufacturer's recommendation and was facilitated by addition of linear polyacrylamide (Sigma) as a carrier during RNA precipitation. Purified total RNA was treated with 4 units of RQ1 RNase-free DNase (Promega) at 37° C. for 1 hour to remove trace amounts of genomic DNA. The DNase-treated total RNA was cleaned-up using RNeasy micro kit (QIAGEN). 10-50 ng of total RNA was used as input for cDNA preparation and amplification using Ovation RNA-Seq System V2 (NuGEN). Amplified cDNA was sheared using Covaris S2 (Covaris) using the following settings: total volume […], duty cycle 10%, intensity 5, cycle/burst 100, total time 2 min. The sheared cDNA was cleaned up using Agencourt Ampure XP (Beckman Coulter) to obtain cDNA fragments>=400 base pairs (bp). 500 ng of sheared and size-selected cDNA were used as input for library preparation using NEBNext Ultra DNA Library Prep Kit for Illumina (New England BioLabs) as per manufacturer's recommendations. Resulting libraries (fragment distribution: 300-700 bp; peak 500-550 bp) were sequenced using HiSeq 4000 (Illumina) to obtain 2×150 base pair paired-end reads. The reads obtained were trimmed for base call quality and the presence of adapter sequences using Skewer (ref). High quality reads thus obtained were aligned to mouse genome using OLego (ref) and the levels of expressed mRNAs were estimated using cuffdiff2 (ref) and represented as fragments per kilo-base per million mapped reads (FPKM).
To broadly determine the causative transcriptional changes in injured mesothelial cells downstream of HIF1A inhibition, we treated 10 wild type C57BL/6J mice with (20 ug/kg) of echinomycin prior to and immediately following adhesion induction via placement of four ischemic buttons. Using a similar method as outlined above, we isolated the damaged mesothelium from buttons, sorted and isolated their RNA for sequencing.

[3] = test system: adhesion formation in mice; assay: Adhesion induction with neutrophil/monocyte modulating treatments, adhesion score (Example 2); settings: for adhesion formation (adhesion score), pre-treatment: treated 24 hours prior to adhesion induction
Text: as §1
Peritoneal washes from similar time points confirmed that increased numbers of neutrophils and macrophages enter the peritoneum.

adhesions in mice = assay: Pre-treatment 3 days prior to adhesion induction surgery, adhesion severity scale 0-5 (Example 3); settings: pre-treated 3 days prior to surgery, evaluated 7 days post injury, versus PBS control
Text: as §1, with “Light abrasion on the button (24 times) and on the adjacent liver, cecum, and small and large bowels (7 times) was optionally performed (depending on the desired adhesion severity) with a surgical brush. Light brushing with fewer repetitions was performed to avoid pinpoint bleeding. The peritoneum was closed using 4-0 silk sutures and the skin was stapled closed (EZ Clips, 9 mm, Braintree Scientific Inc). Mice were allowed to recover on a heating pad and injected with 0.05-0.1 mg/kg of buprenorphine.” left out
Mice were pre-treated with either PLGA, thioglycollate, or PBS control 3 days prior to adhesion induction surgery as described in Example 1. Mice were evaluated 7 days post injury and evaluated on an adhesion severity scale from 0-5 for adhesions forming on the suture site (S) or the button (B). […]

Cc1ccc(C(=O)COC(=O)c2cccc(NC(=O)c3ccc([N+](=O)[O-])cc3[N+](=O)[O-])c2)cc1 [FM19G11]
adhesion formation [1]: reduce adhesion formation

CCC(C)SSc1ncc[nH]1 (stereo not shown) [PX12]
adhesion formation [1]: significantly reduced; also recorded: dramatic decrease in adhesion formation and frequency; also recorded: significant decreases in adhesion formation; also recorded: reduce adhesion formation | adhesion score in a majority of the treated mice [1]: 0 | HIF1A immunofluorescence staining of mesothelium surrounding the buttons / adhesions (HIF1A): stained with only MSLN and PDPN

CS[C@H]1SC[C@H]2C(=O)N(C)[C@@H](C(C)C)C(=O)OC[C@@H](NC(=O)c3cnc4ccccc4n3)C(=O)N[C@@H](C)C(=O)N(C)[C@@H]1C(=O)N(C)[C@@H](C(C)C)C(=O)OC[C@@H](NC(=O)c1cnc3ccccc3n1)C(=O)N[C@@H](C)C(=O)N2C [echinomycin]
adhesion formation [1]: significantly reduced; also recorded: dramatic decrease in adhesion formation and frequency; also recorded: significant decreases in adhesion formation; also recorded: significantly reduces the formation of adhesions | adhesion score in a majority of the treated mice [1]: 0 | HIF1A immunofluorescence staining of mesothelium surrounding the buttons / adhesions (HIF1A): stained with only MSLN and PDPN | ITGAM, ITGB1, and ITGB2 gene expression after HIF1A inhibition ([2]; 20 ug/kg echinomycin): little difference in gene expression | PDPN, MSLN, and S100A4 expression after treatment ([2]; 20 ug/kg echinomycin): increased in expression | UPK1B and WT1 expression levels after treatment ([2]; 20 ug/kg echinomycin): dropped significantly | number of genes normally upregulated along the 24 hour time course that were decreased with HIF1A inhibition ([2]; 20 ug/kg echinomycin): over 200 genes | number of genes with little or decreased expression during the 24 hour time course that were upregulated by HIF1A inhibition ([2]; 20 ug/kg echinomycin): over 600 genes | expression of known HIF1A targets VEGFb and transferrin (TRF) ([2]; 20 ug/kg echinomycin prior to and immediately following adhesion induction): downregulated

Catalase
adhesion formation (adhesion score), pre-treatment [3]: worsens adhesion formation

MCP-1: monocyte chemoattractant protein-1, a known monocyte chemoattractant
side effects in animals ([3]; MCP-1 administration (e.g., intraperitoneally) in animal models): little or no side effects | adhesion formation (adhesion score), post-surgery treatment ([3]; treated for three days following adhesion induction surgery): diminish adhesion formation; also recorded: substantial reduction in adhesion grades

thioglycollate
adhesion formation (adhesion score), pre-treatment [3]: diminished adhesions | severity of adhesions at the button (B) (adhesions in mice): significantly reduced severity of adhesions | severity of adhesions at the suture site (S) (adhesions in mice): significantly reduced severity of adhesions
